Measured values as given in paper PMC6576746, “Rational discovery of dual-indication multi-target PDE/Kinase inhibitor for precision anti-cancer therapy using structural systems pharmacology” (PLoS Computational Biology, 2019).

Tests used:
Assay in all cases: biochemical
Design in all cases: DiscoverX KinomeScan competition binding assay across human kinases; per cent of control at 10 and 100 uM
[1] = target: ROS1 (Homo sapiens, UniProt P08922); details: competition binding, % of control; read-out: Percent Control (100 uM Levosimendan)
Method in brief: (§1)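 KinomeScan competition binding was run across a human kinase panel at 10 μM and 100 μM levosimendan. Results are %control = (test − positive control)/(negative control − positive control) × 100.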

[2] = target: T1, SGK (Homo sapiens, UniProt O00141); details: competition binding, % of control
T1 construct: gene SGK1
Method in brief: as §1

[3] = target: PHKG2 (Homo sapiens, UniProt P15735); details: competition binding, % of control
Method in brief: as §1

[4] = target: PIK3CA(Q546K) (Homo sapiens, UniProt P42336, Q546K); details: competition binding, % of control; read-out: Percent Control (100 uM Levosimendan)
Method in brief: as §1

[5] = target: TAOK3 (Homo sapiens, UniProt Q9H2K8); details: competition binding, % of control; read-out: Percent Control (100 uM Levosimendan)
Method in brief: as §1

[6] = target: T2, RPS6KA4(Kin.Dom.2-C-terminal) (Homo sapiens, UniProt O75676); details: competition binding, % of control; read-out: Percent Control (100 uM Levosimendan)
T2 construct: Kin.Dom.2-C-terminal
Method in brief: as §1

[7] = target: FLT4 (Homo sapiens, UniProt P35916); details: competition binding, % of control
Method in brief: as §1

[8] = target: T3, BRK (Homo sapiens, UniProt Q13882); details: competition binding, % of control; read-out: Percent Control (100 uM Levosimendan)
T3 construct: gene PTK6
Method in brief: as §1

[9] = target: GSK3B (Homo sapiens, UniProt P49841); details: competition binding, % of control; read-out: Percent Control (100 uM Levosimendan)
Method in brief: as §1

[10] = target: PDPK1 (Homo sapiens, UniProt O15530); details: competition binding, % of control; read-out: Percent Control (100 uM Levosimendan)
Method in brief: as §1

[11] = target: KIT-autoinhibited (Homo sapiens, UniProt P10721); details: competition binding, % of control
Method in brief: as §1

[12] = target: PIK3CA(E542K) (Homo sapiens, UniProt P42336, E542K); details: competition binding, % of control; read-out: Percent Control (100 uM Levosimendan)
Method in brief: as §1

[13] = target: FLT3-autoinhibited (Homo sapiens, UniProt P36888); details: competition binding, % of control; read-out: Percent Control (100 uM Levosimendan)
Method in brief: as §1

[14] = target: T4, ERK1 (Homo sapiens, UniProt P27361); details: competition binding, % of control; read-out: Percent Control (100 uM Levosimendan)
T4 construct: gene MAPK3
Method in brief: as §1

[15] = target: STK33 (Homo sapiens, UniProt Q9BYT3); details: competition binding, % of control; read-out: Percent Control (100 uM Levosimendan)
Method in brief: as §1

[16] = target: CDK2 (Homo sapiens, UniProt P24941); details: competition binding, % of control; read-out: Percent Control (100 uM Levosimendan)
Method in brief: as §1

[17] = target: T5, CDK11 (Homo sapiens, UniProt Q9BWU1); details: competition binding, % of control; read-out: Percent Control (100 uM Levosimendan)
T5 construct: gene CDK19
Method in brief: as §1

[18] = target: EGFR(T790M) (Homo sapiens, UniProt P00533, T790M); details: competition binding, % of control
Method in brief: as §1

[19] = read-out: Percent Control (10 uM Levosimendan)
[20] = read-out: Percent Control (100 uM Levosimendan)

Sequence of FLT4 (P35916 whole entry): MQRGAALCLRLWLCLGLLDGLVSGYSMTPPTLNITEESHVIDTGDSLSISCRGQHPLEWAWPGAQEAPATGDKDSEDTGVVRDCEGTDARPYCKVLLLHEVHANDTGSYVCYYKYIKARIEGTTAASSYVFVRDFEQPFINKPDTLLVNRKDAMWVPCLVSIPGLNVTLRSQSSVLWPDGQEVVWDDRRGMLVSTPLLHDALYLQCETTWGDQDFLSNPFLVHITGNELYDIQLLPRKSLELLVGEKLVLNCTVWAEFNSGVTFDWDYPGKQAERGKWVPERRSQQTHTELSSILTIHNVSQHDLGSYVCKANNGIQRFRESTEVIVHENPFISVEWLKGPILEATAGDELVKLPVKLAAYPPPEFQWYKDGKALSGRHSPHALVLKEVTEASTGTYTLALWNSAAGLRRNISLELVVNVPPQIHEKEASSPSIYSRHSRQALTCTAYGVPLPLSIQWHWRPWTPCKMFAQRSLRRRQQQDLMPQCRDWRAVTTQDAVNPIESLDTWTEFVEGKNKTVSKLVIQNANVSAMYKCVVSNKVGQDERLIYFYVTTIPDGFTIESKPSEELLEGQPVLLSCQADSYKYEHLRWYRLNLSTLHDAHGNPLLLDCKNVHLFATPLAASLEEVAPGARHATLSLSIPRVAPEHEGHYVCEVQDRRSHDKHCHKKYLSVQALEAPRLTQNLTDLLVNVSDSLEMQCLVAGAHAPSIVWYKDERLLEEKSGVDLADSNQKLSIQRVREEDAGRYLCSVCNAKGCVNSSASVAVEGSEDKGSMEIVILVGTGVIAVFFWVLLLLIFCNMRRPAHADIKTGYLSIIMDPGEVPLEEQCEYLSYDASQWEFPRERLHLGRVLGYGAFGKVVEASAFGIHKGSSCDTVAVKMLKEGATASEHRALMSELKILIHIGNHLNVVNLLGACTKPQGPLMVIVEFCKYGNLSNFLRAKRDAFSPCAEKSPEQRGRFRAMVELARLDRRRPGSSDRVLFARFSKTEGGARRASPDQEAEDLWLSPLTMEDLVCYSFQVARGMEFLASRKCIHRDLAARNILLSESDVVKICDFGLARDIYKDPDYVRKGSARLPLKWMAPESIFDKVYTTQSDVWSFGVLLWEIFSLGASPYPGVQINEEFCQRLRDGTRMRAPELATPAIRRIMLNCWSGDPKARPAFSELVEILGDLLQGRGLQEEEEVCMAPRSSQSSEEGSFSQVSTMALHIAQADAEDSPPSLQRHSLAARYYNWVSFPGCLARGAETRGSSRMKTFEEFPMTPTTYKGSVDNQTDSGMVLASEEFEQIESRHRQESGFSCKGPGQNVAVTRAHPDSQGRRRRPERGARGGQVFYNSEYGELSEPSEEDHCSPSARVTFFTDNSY
Sequence of KIT-autoinhibited (P10721 whole entry): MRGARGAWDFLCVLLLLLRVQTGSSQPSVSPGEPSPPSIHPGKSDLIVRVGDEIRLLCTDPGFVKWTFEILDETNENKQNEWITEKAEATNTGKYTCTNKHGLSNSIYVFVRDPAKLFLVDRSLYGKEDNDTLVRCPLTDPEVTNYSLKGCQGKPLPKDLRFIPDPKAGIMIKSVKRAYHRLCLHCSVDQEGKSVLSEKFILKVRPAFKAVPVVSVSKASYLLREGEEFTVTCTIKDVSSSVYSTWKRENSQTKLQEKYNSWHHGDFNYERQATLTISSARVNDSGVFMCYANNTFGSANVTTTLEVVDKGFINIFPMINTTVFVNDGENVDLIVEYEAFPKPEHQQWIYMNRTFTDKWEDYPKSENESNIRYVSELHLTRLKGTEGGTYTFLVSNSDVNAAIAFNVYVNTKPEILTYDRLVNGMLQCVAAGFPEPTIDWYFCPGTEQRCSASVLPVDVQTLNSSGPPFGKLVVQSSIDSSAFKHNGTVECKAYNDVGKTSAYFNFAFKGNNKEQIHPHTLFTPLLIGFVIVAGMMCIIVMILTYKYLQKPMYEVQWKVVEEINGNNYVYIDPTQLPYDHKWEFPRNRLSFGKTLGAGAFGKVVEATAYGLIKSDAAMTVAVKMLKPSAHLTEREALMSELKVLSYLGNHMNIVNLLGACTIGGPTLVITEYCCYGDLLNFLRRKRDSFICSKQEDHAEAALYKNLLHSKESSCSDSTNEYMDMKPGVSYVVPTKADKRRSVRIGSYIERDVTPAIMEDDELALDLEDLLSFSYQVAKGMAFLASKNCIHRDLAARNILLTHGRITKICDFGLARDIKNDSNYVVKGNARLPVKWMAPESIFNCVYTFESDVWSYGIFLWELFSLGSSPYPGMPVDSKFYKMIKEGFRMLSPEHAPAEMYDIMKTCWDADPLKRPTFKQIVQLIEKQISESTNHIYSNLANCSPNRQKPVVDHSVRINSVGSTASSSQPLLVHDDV
Sequence of PHKG2 (P15735 whole entry): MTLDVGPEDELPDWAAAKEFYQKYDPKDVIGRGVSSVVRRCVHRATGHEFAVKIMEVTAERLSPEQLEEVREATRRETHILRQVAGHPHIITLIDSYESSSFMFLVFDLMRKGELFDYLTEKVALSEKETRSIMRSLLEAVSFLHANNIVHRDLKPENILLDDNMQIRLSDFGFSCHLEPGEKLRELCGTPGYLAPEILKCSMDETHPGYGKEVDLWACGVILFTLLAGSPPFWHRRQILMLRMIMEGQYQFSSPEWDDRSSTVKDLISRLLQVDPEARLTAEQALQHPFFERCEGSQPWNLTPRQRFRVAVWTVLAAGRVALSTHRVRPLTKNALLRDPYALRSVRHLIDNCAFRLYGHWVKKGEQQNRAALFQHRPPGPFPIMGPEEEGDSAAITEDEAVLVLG
Sequence of EGFR(T790M) (P00533 whole entry T790M): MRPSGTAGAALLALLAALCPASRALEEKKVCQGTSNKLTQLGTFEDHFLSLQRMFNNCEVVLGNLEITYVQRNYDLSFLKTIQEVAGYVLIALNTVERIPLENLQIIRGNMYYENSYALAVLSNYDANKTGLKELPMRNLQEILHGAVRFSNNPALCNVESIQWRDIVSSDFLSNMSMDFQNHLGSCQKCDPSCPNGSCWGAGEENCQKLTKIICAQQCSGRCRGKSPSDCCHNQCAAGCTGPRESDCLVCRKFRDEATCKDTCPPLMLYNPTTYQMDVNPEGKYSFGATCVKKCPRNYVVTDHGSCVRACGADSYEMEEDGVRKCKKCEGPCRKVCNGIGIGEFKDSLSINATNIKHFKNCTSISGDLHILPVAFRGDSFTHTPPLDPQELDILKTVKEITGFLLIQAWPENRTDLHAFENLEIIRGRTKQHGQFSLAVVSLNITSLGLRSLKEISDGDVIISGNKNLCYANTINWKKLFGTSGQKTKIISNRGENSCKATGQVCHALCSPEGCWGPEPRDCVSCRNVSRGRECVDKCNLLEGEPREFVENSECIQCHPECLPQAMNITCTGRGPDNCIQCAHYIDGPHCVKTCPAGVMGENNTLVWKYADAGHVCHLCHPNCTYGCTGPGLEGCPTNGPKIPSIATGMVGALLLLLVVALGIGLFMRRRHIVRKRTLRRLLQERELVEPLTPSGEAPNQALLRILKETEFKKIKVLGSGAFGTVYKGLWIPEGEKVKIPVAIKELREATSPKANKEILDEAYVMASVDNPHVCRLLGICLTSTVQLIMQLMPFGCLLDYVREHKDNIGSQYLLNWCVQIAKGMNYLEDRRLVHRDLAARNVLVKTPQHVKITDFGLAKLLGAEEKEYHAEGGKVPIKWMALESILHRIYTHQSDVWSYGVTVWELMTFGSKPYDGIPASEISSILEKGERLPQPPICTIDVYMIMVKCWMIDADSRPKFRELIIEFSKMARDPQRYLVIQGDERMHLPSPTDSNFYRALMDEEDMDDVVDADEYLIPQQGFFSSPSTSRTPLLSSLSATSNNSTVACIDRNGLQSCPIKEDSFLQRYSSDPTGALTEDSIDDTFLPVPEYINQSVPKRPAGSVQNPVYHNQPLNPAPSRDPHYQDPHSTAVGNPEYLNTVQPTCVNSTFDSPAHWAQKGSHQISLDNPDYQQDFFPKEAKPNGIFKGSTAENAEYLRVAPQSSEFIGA
T1 sequence (O00141 whole entry): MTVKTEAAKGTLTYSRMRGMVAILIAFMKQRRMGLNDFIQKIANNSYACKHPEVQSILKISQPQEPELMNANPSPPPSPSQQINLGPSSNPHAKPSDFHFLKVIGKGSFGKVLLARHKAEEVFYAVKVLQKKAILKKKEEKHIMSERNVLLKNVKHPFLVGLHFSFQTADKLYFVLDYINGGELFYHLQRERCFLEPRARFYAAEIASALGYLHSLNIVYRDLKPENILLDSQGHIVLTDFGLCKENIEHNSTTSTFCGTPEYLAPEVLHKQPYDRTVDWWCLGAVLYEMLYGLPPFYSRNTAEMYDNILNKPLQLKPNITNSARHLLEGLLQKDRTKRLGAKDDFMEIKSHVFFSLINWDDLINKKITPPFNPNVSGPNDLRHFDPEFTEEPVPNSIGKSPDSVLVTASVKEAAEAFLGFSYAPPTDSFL
Sequence of PDPK1 (O15530 whole entry): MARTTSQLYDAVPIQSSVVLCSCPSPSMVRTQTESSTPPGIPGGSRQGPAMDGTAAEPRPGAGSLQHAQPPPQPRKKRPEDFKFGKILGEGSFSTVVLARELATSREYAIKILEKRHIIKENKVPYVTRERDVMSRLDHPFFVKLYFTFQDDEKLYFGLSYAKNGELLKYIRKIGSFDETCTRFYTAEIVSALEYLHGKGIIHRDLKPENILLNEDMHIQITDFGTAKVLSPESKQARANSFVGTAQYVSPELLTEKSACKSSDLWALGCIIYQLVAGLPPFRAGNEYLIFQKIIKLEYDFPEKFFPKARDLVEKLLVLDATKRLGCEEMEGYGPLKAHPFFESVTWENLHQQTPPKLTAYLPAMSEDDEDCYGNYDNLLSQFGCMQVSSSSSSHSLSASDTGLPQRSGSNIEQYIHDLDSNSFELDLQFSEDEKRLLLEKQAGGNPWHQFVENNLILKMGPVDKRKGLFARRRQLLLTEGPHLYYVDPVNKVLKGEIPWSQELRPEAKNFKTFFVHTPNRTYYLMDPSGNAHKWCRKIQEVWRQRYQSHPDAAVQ

- remaining binding at 100 µM [1]: 62%
- remaining binding at 10 µM [2, 19]: 81%
- remaining binding at 100 µM [2, 20]: 40%
- remaining binding at 10 µM [3, 19]: 55%
- remaining binding at 100 µM [3, 20]: 47%
- remaining binding at 100 µM [4]: 100%
- remaining binding at 100 µM [5]: 100%
- remaining binding at 100 µM [6]: 95%
- remaining binding at 10 µM [7, 19]: 100%
- remaining binding at 100 µM [7, 20]: 49%
- remaining binding at 100 µM [8]: 85%
- remaining binding at 100 µM [9]: 100%
- remaining binding at 100 µM [10]: 100%
- remaining binding at 10 µM [11, 19]: 76%
- remaining binding at 100 µM [11, 20]: 52%
- remaining binding at 100 µM [12]: 100%
- remaining binding at 100 µM [13]: 98%
- remaining binding at 100 µM [14]: 87%
- remaining binding at 100 µM [15]: 100%
- remaining binding at 100 µM [16]: 97%
- remaining binding at 100 µM [17]: 100%
- remaining binding at 10 µM [18, 19]: 88%
- remaining binding at 100 µM [18, 20]: 31%
Compound: C[C@@H]1CC(=O)NN=C1c1ccc(NN=C(C#N)C#N)cc1 [levosimendan]
